pIC50: −log10 of the molar value.
Assays:
PI3Kβ (p110β/p85α) = target: T1, PI3Kβ (p110β/p85α) (Homo sapiens, UniProt P42338); experiment: PI3Kβ TR-FRET (HTRF) assay; assay type: biochemical; details: 10 μM ATP
T1 construct: N-terminal histidine-tagged recombinant full-length human p110β; His tag (N); made in house; host or cells: Baculovirus-infected Sf21 insect cells
Experimental: Activity of PI3Kβ was measured using time-resolved fluorescence resonance energy transfer (TR-FRET) assay utilizing homogenous time resolved fluorescence (HTRF) technology. PI3Kβ, a complex of N-terminal histidine-tagged recombinant full-length human p110β and untagged recombinant full length human p85α were coexpressed in a Baculovirus infected Sf21 cell expression system. (GenBank Accession No. for p110β, NM—006219; for p85α, XM—043865) The proteins are purified by one-step affinity chromatography using glutathione-agarose. A competition assay was performed to measure the amount of PIP3 generated from PIP2 in the presence of purified recombinant PI3 Kbeta (p110β/p85α). PI3Kβ was incubated with 10 μM PIP2 substrate in the reaction buffer (20 mM HEPES, pH 7.5, 10 mM NaCl, 4 mM MgCl2, 2 mM DTT, 10 μM ATP and 1% DMSO) for 30 minutes at 30° C. The reaction product was then mixed with a PIP3 detector protein, europium-labeled antibody, biotin-labeled PIP3 probe and allophycocyanin-labeled Streptavidin. A sensor complex is formed to generate a stable TR-FRET signal in the reaction mixture. This signal intensity decrease as biotin-labeled probe binding to the PIP3 detector is displaced by PIP3 produced by enzymatic activity and the amount of unbound biotin-labeled PIP3 probe in the mixture increases. TR-FRET signal was determined using microplate reader with background subtraction.

[1] = tested on: HDACs (HeLa cell nuclear extracts); experiment: HDAC enzymatic activity, Biomol Color de Lys system; assay type: biochemical
How it was run: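 HeLa nuclear extract as HDAC source with Color de Lys substrate in 50 mM Tris/Cl pH 8.0, 137 mM NaCl, 2.7 mM KCl, 1 mM MgCl2. Serially diluted compounds reacted 1 h at 25 °C, then developer added; fluorescence (Ex 350–380/Em 440–460) fitted sigmoidally for IC50.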

BT-474 cells = experiment: Cell proliferation assay Method A (ATPlite), BT-474; assay type: cell-based; details: Homo sapiens, 72 hours, read-out: antiproliferative activity IC50, BT-474
How it was run: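 Cells seeded at 5,000–10,000 per well with graded compound concentrations and cultured 72 h in 0.5% fetal bovine serum. Growth inhibition read as cellular ATP content by firefly luciferase luminescence (ATPlite).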

MDA-MB-468 cells = experiment: Cell proliferation assay Method B, MDA-MB-468; assay type: cell-based; details: Homo sapiens, Breast, Method B, 72 hours, read-out: antiproliferative activity IC50, MDA-MB-468
How it was run: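 After 72 hours of exposure to test compounds at multiple concentrations, with fetal bovine serum held at 0.5%, cells were lysed to stabilise ATP and luminescence was measured to gauge growth inhibition.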

WiDr cells = experiment: Cell proliferation assay Method B, WiDr; assay type: cell-based; details: Homo sapiens, Colon, 72 hours, read-out: antiproliferative activity IC50, WiDr
Experimental: (§1) Cancer cell lines were plated at 5,000 to 10,000 per well in 96-well flat bottomed plates with various concentration of compounds. The cells were incubated with compounds for 72 hours in the presence of 0.5% of fetal bovine serum. Growth inhibition was accessed by adenosine triphosphate (ATP) content assay using Promega CellTiter-Glo kit. Promega CellTiter-Glo kit is an ATP monitoring system based on firefly luciferase. Briefly, 16 μl of mammalian cell lysis and substrate solution was added to 84 μl of culture medium per well to lyse the cells and stabilize the ATP. The mixture was shaken and incubated for 30 minutes and subsequently the luminescence was measured.

HCT116 cells = experiment: Cell proliferation assay Method B, HCT116; assay type: cell-based; details: Homo sapiens, HCT-116, Colon, 72 hours, read-out: antiproliferative activity IC50, HCT116
Experimental: as §1

SW403 cells = experiment: Cell proliferation assay Method B, SW403; assay type: cell-based; details: Homo sapiens, SW-403, Colon, 72 hours, read-out: antiproliferative activity IC50, SW403
Experimental: as §1

H2122 cells = experiment: Cell proliferation assay Method B, H2122; assay type: cell-based; details: Homo sapiens, NCI-H2122, NSCLC, 72 hours, read-out: antiproliferative activity IC50, H2122
Experimental: as §1

A549 cells = experiment: Cell proliferation assay Method B, A549; assay type: cell-based; details: Homo sapiens, NSCLC, 72 hours, read-out: antiproliferative activity IC50, A549
Experimental: as §1

PANC-1 cells = experiment: Cell proliferation assay Method B, PANC-1; assay type: cell-based; details: Homo sapiens, Pancreas, 72 hours, read-out: antiproliferative activity IC50, PANC-1
Experimental: as §1

PC-3 cells = experiment: Cell proliferation assay Method B, PC-3; assay type: cell-based; details: Homo sapiens, Prostate, 72 hours, read-out: antiproliferative activity IC50, PC-3
Experimental: as §1

OVCAR-5 cells = experiment: Cell proliferation assay Method B, OVCAR-5; assay type: cell-based; details: Homo sapiens, Ovarian, 72 hours, read-out: antiproliferative activity IC50, OVCAR-5
Experimental: as §1

glioblastoma xenografts = details: oral dosage; Folkes et al. 2008; cited from earlier work

T1 sequence (P42338 whole entry): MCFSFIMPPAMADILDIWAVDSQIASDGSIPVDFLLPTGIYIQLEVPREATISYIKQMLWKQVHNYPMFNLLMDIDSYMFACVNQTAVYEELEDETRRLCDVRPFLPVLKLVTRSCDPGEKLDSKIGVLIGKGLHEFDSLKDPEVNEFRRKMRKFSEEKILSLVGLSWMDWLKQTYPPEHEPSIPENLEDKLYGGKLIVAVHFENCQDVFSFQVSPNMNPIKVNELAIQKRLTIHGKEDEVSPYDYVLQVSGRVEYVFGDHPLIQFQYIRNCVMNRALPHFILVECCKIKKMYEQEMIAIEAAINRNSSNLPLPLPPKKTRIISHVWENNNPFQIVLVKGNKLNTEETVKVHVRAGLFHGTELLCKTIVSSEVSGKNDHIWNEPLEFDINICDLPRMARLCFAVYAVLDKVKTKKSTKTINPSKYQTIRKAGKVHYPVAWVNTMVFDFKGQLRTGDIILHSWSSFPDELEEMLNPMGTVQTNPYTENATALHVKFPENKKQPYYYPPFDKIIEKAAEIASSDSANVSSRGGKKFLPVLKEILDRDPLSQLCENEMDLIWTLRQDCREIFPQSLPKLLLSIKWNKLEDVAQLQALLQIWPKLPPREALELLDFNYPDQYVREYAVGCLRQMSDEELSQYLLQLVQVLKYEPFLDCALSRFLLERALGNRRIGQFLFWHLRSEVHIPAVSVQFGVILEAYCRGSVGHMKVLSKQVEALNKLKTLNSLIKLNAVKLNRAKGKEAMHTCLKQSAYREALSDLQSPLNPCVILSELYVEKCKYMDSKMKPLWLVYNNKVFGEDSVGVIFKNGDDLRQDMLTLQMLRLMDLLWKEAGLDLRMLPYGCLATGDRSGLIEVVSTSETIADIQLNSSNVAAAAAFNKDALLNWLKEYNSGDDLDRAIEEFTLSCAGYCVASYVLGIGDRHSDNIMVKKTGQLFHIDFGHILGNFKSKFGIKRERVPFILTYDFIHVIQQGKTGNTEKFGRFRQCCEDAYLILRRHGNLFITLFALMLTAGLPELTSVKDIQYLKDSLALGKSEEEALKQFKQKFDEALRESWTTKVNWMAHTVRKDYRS
T1 sequence (P27986 whole entry partner): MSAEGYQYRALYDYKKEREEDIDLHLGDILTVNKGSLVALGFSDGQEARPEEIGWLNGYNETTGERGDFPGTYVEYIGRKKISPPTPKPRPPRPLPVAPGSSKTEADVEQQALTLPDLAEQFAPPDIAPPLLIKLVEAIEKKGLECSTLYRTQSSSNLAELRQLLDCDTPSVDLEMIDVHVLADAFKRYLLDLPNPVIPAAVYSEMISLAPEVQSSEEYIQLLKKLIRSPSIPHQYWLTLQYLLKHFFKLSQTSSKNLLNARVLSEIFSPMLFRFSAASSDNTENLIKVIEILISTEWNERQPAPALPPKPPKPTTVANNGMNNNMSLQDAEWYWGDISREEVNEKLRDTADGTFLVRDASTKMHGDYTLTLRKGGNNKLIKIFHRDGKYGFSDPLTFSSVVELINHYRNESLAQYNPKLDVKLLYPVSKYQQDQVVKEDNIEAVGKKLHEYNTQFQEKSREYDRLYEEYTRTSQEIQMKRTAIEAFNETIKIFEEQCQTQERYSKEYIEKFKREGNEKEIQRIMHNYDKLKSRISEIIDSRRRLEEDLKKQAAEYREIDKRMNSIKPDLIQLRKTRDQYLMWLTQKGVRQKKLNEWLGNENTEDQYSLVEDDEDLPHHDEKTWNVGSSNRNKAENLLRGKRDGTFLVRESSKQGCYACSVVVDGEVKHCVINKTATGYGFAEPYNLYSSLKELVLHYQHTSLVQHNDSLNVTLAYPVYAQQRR

| pIC50 (PI3Kβ (p110β/p85α)) | pIC50 [1] | pIC50 (BT-474 cells) | pIC50 (MDA-MB-468 cells) | Compound | pIC50 (WiDr cells) | pIC50 (HCT116 cells) | pIC50 (SW403 cells) | pIC50 (H2122 cells) | pIC50 (A549 cells) | pIC50 (PANC-1 cells) | pIC50 (PC-3 cells) | pIC50 (OVCAR-5 cells) | tumor suppression in glioblastoma xenografts (glioblastoma xenografts) |
| --- | --- | --- | --- | --- | --- | --- | --- | --- | --- | --- | --- | --- | --- |
| > 7.00 | > 7.00 | > 7.00 | 7.00 to 8.00 | CN(Cc1cc2nc(-c3ccc(N)cc3)nc(N3CCOCC3)c2s1)c1ncc(C(=O)NO)cn1 [Compound 150, 2-(((2-(4-aminophenyl)-4-morpholinothieno[3,2-d]pyrimidin-6-yl)methyl)(methyl)amino)-N-hydroxypyrimidine-5-carboxamide] | – | – | – | – | – | – | – | – | – |
| – | – | – | – | CS(=O)(=O)N1CCN(Cc2cc3nc(-c4cccc5[nH]ncc45)nc(N4CCOCC4)c3s2)CC1 [GDC-0941, reference compound] | < 5.00 | 5.00 to 6.00 | < 5.00 | 5.00 to 6.00 | 5.00 to 6.00 | 5.00 to 6.00 | 5.00 to 6.00 | 6.00 to 7.00 | tumor suppression |
